Four molecules from US11512268B2, “Storage-stable enzyme preparations, their production and use” (BASF SE, priority 2017, dated 2022) can be followed below.

For one test, the target named is T1, Lipolase (Thermomyces lanuginosus, UniProt O59952).
T1 construct: purchased Sigma-Aldrich
T1 sequence (O59952 23-291): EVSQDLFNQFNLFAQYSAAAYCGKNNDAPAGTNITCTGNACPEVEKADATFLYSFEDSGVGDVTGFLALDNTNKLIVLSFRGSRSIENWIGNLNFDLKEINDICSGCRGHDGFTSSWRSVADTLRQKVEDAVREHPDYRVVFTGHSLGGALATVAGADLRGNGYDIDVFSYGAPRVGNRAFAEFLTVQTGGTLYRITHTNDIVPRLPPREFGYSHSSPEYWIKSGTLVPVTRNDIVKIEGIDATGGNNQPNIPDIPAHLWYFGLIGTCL
In words: storage stability of lipase (Lipolase activity, pNitrophenol-valerate substrate) in liquid formulations at 37° C. The conditions noted are these: component (a) 2.5 wt %, Lipolase 0.4 wt %, storage at 37° C. The format is biochemical, Thermomyces lanuginosa. How it is done: (§1) The storage stability of Lipase and Protease in water was assessed at 37° C.
(§2) Base test formulations were manufactured by making base formulations I to VI by mixing the components according to Table 1.
(§3) The respective salt (component (a)) or comparative compound was added, if applicable, to the respective base formulation in amounts as indicated in Table 1.
(§4) The amount of enzyme as provided in Table 1 refers to active protein. Either lipase or protease was added, depending on which enzyme activity was measured.
(§5) Lipolase® 100 L (CAS-No. 9001-62-1, EC-No. 232-619-9) was purchased from Sigma-Aldrich. Savinase® 16.0 L (CAS-No. 9014-01-1, EC-No. 232-752-2) was purchased from Sigma-Aldrich.
Lipolase activity at certain points in time as indicated in Table 2 was be determined by employing pNitrophenol-valerate (2.4 mM pNP-C5 in 100 mM Tris pH 8.0, 0.01% Triton X100) as a substrate. The absorption was measured at 20° C. every 30 seconds over 5 minutes at 405 nm. The slope (absorbance increase at 405 nm per minute) of the time dependent absorption-curve is directly proportional to the activity of the lipase.
The lipolytic activity values provided in Table 2 were calculated referring to the 100% value determined in the reference formulation at the time 0.
(§6) The nomenclature of formulations is as follows: the Roman number before the full stop characterizes the base formulation, the Arabian number the type of salt (A.# inventive salt (component (a)); C-(A.#) comparative compound). Zero (“0”): no salt, but diethylene glycol.

A further test addresses T2, Savinase (Lederbergia lenta, UniProt P29600).
T2 construct: purchased Sigma-Aldrich
T2 sequence (P29600 1-269): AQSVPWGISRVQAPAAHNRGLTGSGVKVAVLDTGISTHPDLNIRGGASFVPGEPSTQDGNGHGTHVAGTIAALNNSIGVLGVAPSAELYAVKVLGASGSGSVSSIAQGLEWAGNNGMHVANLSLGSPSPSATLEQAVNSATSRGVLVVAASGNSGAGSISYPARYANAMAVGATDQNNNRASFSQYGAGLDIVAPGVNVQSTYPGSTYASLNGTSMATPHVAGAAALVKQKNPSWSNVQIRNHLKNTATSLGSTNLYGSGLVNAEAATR
As to the kind of experiment: storage stability of protease (Savinase activity, Suc-AAPF-pNA substrate) in liquid formulations at 37° C. The conditions noted are these: base formulation III., component (a) 2.5 wt %, Savinase 16.0 L 0.5 wt %, storage at 37° C. The format is biochemical. As for the experimental part:
as §1, §2, §3, §4, §5
Savinase activity at certain points in time as indicated in Table 3 was be determined by employing Succinyl-Ala-Ala-Pro-Phe-p-nitroanilide (Suc-AAPF-pNA, short AAPF) as substrate. pNA is cleaved from the substrate molecule by proteolytic cleavage, resulting in release of yellow color of free pNA which was determined by measuring OD405. Measurement were done at 20° C.
The proteolytic activity values provided in Table 3 were calculated referring to the 100% value determined in the reference formulation at the time 0.
as §6

As for `CC(=O)OCC[N+](C)(C)C` [(A.12), Acetylcholine], the lipase activity is listed as 98% at Lipolase (base formulation II., 1 d); 96% on Lipolase (base formulation II., 3 d); 95% at Lipolase (base formulation II., 6 d); 88% on Lipolase (base formulation II., 10 d); 86% on Lipolase (base formulation II., 15 d); 80% at Lipolase (base formulation II., 20 d). In addition, the lipase activity at Lipolase (base formulation II., 25 d) was 77%; at Lipolase (base formulation II., 30 d), 76%; at Lipolase (base formulation III., 1 d) it was 98%; at Lipolase (base formulation III., 3 d), 97%; at Lipolase (base formulation III., 6 d) it was 95%; on Lipolase (base formulation III., 10 d), 91%. The lipase activity at Lipolase (base formulation III., 15 d) is 86%; on Lipolase (base formulation III., 20 d), 80%; on Lipolase (base formulation III., 25 d), 78%; at Lipolase (base formulation III., 30 d), 74%. The protease activity on Savinase (1 d) came to 96%; on Savinase (3 d), 92%; on Savinase (6 d), 80%; at Savinase (10 d), 70%; at Savinase (15 d) it was 61%; at Savinase (20 d), 50%. Besides, the protease activity at Savinase (25 d) was 39%; on Savinase (30 d), 31%; on Savinase (T0), 96%.
In the case of `O=C([O-])CC(O)(CC(=O)O)C(=O)O.[Na+]` [C-(A.20), monosodium salt of citric acid], the lipase activity on Lipolase (base formulation III., 1 d) was found to be 92%; on Lipolase (base formulation III., 3 d), 79%; at Lipolase (base formulation III., 6 d), 70%; on Lipolase (base formulation III., 10 d), 51%; at Lipolase (base formulation III., 15 d) it was 39%; on Lipolase (base formulation III., 20 d), 30%. The lipase activity is 22% on Lipolase (base formulation III., 25 d); 16% at Lipolase (base formulation III., 30 d); 100% on Lipolase (base formulation III., T0).
Regarding `O=C([O-])CC(O)(CC(=O)[O-])C(=O)O.[Na+].[Na+]` [C-(A.21), disodium salt of citric acid], the lipase activity on Lipolase (base formulation III., 1 d) was 93%; at Lipolase (base formulation III., 3 d), 78%; at Lipolase (base formulation III., 6 d), 68%; at Lipolase (base formulation III., 10 d), 50%; at Lipolase (base formulation III., 15 d) it was 39%; at Lipolase (base formulation III., 20 d), 31%. In addition, the lipase activity is 25% at Lipolase (base formulation III., 25 d); 20% on Lipolase (base formulation III., 30 d); 101% at Lipolase (base formulation III., T0).
For `O=C([O-])CC(O)(CC(=O)[O-])C(=O)[O-].[Na+].[Na+].[Na+]` [C-(A.22), trisodium salt of citric acid], the lipase activity was found to be 87% at Lipolase (base formulation II., 1 d); 79% on Lipolase (base formulation II., 3 d); 67% on Lipolase (base formulation II., 6 d); 55% on Lipolase (base formulation II., 10 d); 40% at Lipolase (base formulation II., 15 d); 33% at Lipolase (base formulation II., 20 d). Moreover, the lipase activity on Lipolase (base formulation II., 25 d) worked out at 24%; at Lipolase (base formulation II., 30 d), 18%; at Lipolase (base formulation II., T0), 95%; at Lipolase (base formulation III., 1 d), 92%; at Lipolase (base formulation III., 3 d), 76%; on Lipolase (base formulation III., 6 d), 66%. Also, the lipase activity at Lipolase (base formulation III., 10 d) amounted to 48%; at Lipolase (base formulation III., 15 d), 37%; on Lipolase (base formulation III., 20 d) it was 28%; at Lipolase (base formulation III., 25 d) it was 23%; on Lipolase (base formulation III., 30 d), 19%; at Lipolase (base formulation III., T0) it was 98%.
